For experiment [1], the target named is T1, High affinity choline transporter 1 (Homo sapiens, UniProt Q9GZV3).
T1 sequence (Q9GZV3 whole entry): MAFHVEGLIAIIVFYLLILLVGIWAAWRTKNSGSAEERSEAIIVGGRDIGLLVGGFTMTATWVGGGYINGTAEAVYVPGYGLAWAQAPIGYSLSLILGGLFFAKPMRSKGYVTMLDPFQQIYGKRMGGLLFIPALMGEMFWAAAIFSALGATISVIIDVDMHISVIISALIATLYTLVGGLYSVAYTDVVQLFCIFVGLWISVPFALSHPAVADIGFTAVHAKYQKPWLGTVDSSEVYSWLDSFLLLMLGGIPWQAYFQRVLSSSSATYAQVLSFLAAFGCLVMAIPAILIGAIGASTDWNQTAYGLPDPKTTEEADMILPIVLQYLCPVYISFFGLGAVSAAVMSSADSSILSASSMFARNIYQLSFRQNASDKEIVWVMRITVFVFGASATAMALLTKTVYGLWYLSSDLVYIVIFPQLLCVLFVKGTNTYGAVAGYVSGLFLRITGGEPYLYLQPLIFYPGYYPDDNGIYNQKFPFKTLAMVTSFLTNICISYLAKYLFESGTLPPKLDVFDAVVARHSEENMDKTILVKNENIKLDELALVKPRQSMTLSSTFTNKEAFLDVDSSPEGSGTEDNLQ
Kind of experiment: human choline transporter blockers, potency – cell-based, 10-point CRC, membrane potential dye, dose response (AID 588401).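 Note: membrane potential dye fluorescence of choline-evoked depolarization via CHT.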 The experiment is classed as functional.

Experiment [2] deals with T1, High affinity choline transporter 1. Kind of experiment: human choline transporter blockers, potency – cell-based, 5-point CRC, membrane potential dye, dose response (AID 504840). The experiment is classed as functional.
Experiment [3] addresses T2, Apoptotic protease-activating factor 1 (Homo sapiens, UniProt O14727).
T2 sequence (O14727 whole entry): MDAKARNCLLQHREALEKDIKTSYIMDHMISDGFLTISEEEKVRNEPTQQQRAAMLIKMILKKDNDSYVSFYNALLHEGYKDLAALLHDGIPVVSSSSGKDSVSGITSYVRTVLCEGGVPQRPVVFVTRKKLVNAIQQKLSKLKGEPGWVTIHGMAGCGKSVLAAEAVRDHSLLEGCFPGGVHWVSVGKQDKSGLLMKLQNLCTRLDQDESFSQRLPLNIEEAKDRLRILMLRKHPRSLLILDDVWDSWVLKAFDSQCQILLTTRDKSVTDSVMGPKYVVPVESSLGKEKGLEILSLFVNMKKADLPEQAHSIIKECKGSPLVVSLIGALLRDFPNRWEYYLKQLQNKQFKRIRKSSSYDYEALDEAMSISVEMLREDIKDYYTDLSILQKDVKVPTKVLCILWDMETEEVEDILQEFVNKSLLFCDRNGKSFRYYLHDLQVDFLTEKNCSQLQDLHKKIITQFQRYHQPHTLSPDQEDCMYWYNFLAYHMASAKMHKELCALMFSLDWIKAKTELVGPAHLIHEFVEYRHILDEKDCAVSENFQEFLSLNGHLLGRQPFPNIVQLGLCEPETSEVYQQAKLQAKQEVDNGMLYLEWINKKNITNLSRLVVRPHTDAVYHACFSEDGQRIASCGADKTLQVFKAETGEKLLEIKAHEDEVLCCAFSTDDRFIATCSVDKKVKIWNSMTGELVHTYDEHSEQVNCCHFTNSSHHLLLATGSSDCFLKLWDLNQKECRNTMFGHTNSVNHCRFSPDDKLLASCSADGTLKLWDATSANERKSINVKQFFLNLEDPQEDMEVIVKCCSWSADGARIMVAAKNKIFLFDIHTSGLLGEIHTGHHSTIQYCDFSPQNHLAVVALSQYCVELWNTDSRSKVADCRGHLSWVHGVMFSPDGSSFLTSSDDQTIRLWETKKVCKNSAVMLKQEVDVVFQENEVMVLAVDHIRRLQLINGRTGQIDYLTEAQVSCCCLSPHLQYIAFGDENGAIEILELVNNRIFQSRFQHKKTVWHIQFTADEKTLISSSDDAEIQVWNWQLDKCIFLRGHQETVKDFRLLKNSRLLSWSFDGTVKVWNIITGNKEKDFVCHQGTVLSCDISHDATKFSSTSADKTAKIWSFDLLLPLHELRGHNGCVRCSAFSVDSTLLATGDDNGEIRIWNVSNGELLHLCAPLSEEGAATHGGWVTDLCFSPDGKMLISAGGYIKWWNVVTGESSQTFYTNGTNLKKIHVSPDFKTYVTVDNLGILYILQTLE
Kind of experiment: SAR analysis of small molecule Activators of Apaf-1 in a Fluorescent assay. The settings on record: read-out: EC50_Mean. It is filed as functional.

The target in experiment [4] is T3, Neuropeptides B/W receptor type 1 (Homo sapiens, UniProt P48145).
T3 sequence (P48145 whole entry): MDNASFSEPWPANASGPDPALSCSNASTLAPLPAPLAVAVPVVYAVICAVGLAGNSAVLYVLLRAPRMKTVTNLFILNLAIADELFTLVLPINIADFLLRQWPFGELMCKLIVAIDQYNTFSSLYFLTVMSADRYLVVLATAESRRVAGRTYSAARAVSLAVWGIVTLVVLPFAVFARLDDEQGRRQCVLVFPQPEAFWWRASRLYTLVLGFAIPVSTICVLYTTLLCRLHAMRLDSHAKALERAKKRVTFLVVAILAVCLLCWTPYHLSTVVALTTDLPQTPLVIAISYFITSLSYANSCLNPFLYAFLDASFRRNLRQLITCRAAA
Description: human NPBW1 receptor blockade, IC50 – cell-based, fluorescence, dose response, set 5, late-stage follow-up (AID 588566). The experiment is classed as functional.

Experiment [5] addresses Melanin-concentrating hormone receptor 1 (Homo sapiens, UniProt Q99705). Description: Late-stage fluorescence-based counterscreen for antagonists of the G-protein coupled receptor 7 (GPR7): cell-based dose response assay to identify antagonists of the melanin-concentrating hormone receptor 1 (MCHR1) Set 5. It is filed as functional. For orientation: A counterscreen serves to expose hits that act by an unwanted route or on another target.

For experiment [6], the target named is Ras and Rab interactor 1/Tyrosine-protein kinase ABL1 (Homo sapiens, UniProt P00519+Q13671). The experiment is classed as functional.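 Note: biochemical TR-FRET dose-response test measuring inhibition of binding between Rin1 and Abl proteins.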
Ras and Rab interactor 1/Tyrosine-protein kinase ABL1, sequence (P00519 whole entry): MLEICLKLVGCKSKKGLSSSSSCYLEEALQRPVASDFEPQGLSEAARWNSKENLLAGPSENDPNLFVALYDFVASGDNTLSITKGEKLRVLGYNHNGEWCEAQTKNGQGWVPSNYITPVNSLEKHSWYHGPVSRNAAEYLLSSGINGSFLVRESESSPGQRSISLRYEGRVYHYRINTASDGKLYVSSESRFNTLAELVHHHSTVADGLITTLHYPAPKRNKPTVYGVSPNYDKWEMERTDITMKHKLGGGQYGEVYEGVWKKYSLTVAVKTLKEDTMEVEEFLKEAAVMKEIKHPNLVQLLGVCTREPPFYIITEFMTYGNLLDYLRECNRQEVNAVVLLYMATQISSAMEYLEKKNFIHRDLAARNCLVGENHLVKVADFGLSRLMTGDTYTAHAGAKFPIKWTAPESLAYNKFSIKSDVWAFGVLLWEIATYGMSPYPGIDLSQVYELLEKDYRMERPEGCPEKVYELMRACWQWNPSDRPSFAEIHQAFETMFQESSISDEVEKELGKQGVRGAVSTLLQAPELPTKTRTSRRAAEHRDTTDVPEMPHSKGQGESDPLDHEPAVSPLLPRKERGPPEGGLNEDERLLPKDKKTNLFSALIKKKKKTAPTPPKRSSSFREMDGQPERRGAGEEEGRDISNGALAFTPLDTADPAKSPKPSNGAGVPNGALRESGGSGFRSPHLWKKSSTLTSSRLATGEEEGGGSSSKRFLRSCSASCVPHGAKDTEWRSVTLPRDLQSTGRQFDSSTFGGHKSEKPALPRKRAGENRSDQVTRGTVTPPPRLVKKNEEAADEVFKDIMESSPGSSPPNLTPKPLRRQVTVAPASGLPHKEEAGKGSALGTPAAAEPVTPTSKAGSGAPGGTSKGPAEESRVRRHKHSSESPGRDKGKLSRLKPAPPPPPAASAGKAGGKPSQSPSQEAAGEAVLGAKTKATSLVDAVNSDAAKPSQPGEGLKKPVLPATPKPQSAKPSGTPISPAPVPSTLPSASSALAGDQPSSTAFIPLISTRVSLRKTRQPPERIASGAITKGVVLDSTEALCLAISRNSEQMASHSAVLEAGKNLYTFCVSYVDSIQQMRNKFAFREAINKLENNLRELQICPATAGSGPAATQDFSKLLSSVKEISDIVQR
Ras and Rab interactor 1/Tyrosine-protein kinase ABL1, sequence (Q13671 whole entry): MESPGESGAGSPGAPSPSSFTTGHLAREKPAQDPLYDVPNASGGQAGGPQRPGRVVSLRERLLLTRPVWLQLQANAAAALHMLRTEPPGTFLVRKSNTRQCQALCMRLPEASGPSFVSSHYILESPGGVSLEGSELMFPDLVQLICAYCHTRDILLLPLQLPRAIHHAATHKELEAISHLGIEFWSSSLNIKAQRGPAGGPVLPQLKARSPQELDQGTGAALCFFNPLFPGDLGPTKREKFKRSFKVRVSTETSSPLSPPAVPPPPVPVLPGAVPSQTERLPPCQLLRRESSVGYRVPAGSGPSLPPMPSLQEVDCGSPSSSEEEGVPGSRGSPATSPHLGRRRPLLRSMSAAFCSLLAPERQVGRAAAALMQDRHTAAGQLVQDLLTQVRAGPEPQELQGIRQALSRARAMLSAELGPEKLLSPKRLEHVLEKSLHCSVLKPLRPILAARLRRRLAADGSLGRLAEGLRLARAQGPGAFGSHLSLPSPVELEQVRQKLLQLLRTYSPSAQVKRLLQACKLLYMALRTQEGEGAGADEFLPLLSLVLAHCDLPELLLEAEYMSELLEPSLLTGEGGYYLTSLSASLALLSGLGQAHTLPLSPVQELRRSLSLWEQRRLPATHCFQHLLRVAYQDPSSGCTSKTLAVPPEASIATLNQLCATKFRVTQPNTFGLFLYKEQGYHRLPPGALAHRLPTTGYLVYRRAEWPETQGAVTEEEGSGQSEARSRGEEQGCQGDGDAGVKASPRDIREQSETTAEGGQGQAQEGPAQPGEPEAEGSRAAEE
The target in another experiment is T4, Galanin receptor type 3 (Homo sapiens, UniProt O60755).
T4 sequence (O60755 whole entry): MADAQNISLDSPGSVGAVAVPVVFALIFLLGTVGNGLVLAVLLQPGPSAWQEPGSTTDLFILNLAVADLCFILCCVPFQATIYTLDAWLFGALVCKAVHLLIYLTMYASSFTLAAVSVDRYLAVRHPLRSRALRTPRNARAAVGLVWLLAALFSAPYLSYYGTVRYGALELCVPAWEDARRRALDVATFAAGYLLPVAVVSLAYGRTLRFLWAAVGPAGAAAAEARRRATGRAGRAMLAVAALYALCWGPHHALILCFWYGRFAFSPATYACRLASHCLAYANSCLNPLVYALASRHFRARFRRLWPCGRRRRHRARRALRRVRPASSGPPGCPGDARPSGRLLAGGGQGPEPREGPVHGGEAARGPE
Kind of experiment: Fluorescence-based cell-based primary high throughput dose response assay to identify antagonists of the Galanin Receptor 3 (GalR3). It is filed as functional.

A further experiment is described as follows: cells. It is filed as functional, cell-based. The settings on record: HEK-CNG.

IC50 and EC50 data for six compounds are collected here from ChEMBL document CHEMBL1201862, “PubChem BioAssay data set” (2004).

One may read the IC50 as the concentration that inhibits the measured activity by half.

Calls of active or inactive are those of the source.
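Throughout, for EC50 Mean: caspase-3 cleavage of fluorogenic Rh110 DEVD substrate downstream of apoptosome activation.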

Melanin-concentrating hormone receptor 1, sequence (Q99705 whole entry): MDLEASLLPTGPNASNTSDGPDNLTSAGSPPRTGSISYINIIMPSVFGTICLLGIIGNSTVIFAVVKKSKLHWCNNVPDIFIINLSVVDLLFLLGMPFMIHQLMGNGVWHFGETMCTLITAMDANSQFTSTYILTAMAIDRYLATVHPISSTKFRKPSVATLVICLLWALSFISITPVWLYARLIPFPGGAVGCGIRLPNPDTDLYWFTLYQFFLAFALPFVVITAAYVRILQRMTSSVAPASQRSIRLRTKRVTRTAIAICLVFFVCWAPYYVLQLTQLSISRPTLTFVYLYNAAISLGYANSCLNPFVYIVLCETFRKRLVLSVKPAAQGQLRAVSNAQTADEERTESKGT

`Cc1cc(C)c(NC(=O)c2ccc[n+](Cc3ccc([N+](=O)[O-])cc3)c2)c(C)c1`: the IC50 in experiment [1] is 1.5 µM (active); in experiment [2], 3.67 µM (active).

For the compound `O=C(O)CC(CCc1ccccc1)NC(=O)c1ccco1` (configuration not stated), the EC50 in experiment [3] was > 100 µM (inactive).

Regarding `COc1cccc(Oc2c(Cl)cnn(C3c4ccccc4-c4ccccc43)c2=O)c1`, the values for the IC50 in experiment [4] and in experiment [5] were 9.69 µM (active) and > 20 µM (inactive), respectively.

For `CC(OC(=O)c1ccccc1NCCO)C(=O)Nc1ccnn1C(C)C` (configuration not stated), in experiment [6], the 50% inhibitory concentration (IC50) is 3.98 µM (active).

For the compound `O=C(C1CCCCN1Cc1c2ccccc2cc2ccccc12)N1CCN(c2ccc([N+](=O)[O-])cc2)CC1` (configuration not stated), the IC50 in experiment [4] and in experiment [5] was > 20 µM (inactive) in each case.

With `COc1ccc(C2=NN(c3nc(C(=O)O)cs3)C(O)(C(F)(F)F)C2)c(OC)c1` (configuration not stated), the concentration for half-maximal inhibition (IC50) in experiment [1] is 4.74 µM (active); at Galanin receptor type 3, 10 µM (inactive); in experiment [2] it was 7.18 µM (active). Further, the EC50 in “cells” is > 29.9 µM (inactive).
